{"source": "ChEMBL document CHEMBL5465560", "about": "“Selectivity Literature for EUbOPEN Chemogenomic Library” (2024)", "key": {"[1]": {"target": "T1, Serine/threonine-protein kinase DCLK2 (Homo sapiens) (UniProt Q8N568)", "T1 sequence (whole entry)": "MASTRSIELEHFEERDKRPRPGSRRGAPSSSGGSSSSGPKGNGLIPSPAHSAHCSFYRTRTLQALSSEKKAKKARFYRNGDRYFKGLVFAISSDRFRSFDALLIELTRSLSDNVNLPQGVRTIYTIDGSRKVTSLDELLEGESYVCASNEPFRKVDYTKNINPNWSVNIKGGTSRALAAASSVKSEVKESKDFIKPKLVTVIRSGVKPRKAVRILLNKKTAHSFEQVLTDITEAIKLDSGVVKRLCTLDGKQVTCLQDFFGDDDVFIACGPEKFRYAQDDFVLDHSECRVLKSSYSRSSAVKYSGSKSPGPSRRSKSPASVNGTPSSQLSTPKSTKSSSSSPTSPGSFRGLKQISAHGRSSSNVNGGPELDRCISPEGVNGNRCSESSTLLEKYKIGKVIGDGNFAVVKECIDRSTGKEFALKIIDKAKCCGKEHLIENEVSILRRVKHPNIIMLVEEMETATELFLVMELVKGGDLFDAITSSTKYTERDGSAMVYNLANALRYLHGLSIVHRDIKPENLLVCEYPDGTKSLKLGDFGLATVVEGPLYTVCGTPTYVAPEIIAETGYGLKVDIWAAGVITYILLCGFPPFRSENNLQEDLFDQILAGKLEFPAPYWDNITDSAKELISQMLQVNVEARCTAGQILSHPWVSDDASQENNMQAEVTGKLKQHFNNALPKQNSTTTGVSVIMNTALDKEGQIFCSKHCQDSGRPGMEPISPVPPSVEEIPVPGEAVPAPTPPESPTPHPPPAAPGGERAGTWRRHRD", "assay": "Selectivity interaction (KinomeScan (DiscoverX)) EUB0000092b DCLK2", "settings": "at 10 µM"}, "[2]": {"target": "T2, PAN2-PAN3 deadenylation complex subunit PAN3 (Homo sapiens) (UniProt Q58A45)", "T2 sequence (whole entry)": "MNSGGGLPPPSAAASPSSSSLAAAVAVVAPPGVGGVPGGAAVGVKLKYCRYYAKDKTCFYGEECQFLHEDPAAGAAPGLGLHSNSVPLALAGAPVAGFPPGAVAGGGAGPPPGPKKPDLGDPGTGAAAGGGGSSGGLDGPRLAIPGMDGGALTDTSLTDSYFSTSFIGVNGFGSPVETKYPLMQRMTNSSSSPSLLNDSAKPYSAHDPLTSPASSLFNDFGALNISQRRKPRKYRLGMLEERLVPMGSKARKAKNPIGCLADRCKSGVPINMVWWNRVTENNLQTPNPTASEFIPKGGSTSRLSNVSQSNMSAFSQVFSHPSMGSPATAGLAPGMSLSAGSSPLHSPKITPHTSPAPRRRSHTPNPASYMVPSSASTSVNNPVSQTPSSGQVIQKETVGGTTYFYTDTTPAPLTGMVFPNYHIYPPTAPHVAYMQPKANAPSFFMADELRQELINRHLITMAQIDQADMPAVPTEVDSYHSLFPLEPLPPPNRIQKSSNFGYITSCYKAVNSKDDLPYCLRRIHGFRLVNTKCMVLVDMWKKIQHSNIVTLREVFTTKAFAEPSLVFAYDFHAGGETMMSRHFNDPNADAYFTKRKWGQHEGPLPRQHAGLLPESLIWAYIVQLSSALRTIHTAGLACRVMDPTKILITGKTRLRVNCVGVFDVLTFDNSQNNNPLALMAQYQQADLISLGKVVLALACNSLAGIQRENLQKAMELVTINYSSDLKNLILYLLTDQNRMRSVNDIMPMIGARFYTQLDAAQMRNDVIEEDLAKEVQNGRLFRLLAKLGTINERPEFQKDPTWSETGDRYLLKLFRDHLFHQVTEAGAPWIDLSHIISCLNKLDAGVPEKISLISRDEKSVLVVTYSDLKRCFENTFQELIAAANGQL", "assay": "Selectivity interaction (Kinase panel (KiNativ target engagement assay in Jurkat cells)) EUB0001635a PAN3", "assay_type": "cell-based", "settings": "Selectivity number of off-targets 0.0, Selectivity number of targets 233.0, Source Knowledge https://www.sciencedirect.com/science/article/pii/S2451945619300674?via%3Dihub, at 1 µM"}, "[3]": {"target": "T3, Serine/threonine-protein kinase PLK4 (Homo sapiens) (UniProt O00444)", "T3 sequence (whole entry)": "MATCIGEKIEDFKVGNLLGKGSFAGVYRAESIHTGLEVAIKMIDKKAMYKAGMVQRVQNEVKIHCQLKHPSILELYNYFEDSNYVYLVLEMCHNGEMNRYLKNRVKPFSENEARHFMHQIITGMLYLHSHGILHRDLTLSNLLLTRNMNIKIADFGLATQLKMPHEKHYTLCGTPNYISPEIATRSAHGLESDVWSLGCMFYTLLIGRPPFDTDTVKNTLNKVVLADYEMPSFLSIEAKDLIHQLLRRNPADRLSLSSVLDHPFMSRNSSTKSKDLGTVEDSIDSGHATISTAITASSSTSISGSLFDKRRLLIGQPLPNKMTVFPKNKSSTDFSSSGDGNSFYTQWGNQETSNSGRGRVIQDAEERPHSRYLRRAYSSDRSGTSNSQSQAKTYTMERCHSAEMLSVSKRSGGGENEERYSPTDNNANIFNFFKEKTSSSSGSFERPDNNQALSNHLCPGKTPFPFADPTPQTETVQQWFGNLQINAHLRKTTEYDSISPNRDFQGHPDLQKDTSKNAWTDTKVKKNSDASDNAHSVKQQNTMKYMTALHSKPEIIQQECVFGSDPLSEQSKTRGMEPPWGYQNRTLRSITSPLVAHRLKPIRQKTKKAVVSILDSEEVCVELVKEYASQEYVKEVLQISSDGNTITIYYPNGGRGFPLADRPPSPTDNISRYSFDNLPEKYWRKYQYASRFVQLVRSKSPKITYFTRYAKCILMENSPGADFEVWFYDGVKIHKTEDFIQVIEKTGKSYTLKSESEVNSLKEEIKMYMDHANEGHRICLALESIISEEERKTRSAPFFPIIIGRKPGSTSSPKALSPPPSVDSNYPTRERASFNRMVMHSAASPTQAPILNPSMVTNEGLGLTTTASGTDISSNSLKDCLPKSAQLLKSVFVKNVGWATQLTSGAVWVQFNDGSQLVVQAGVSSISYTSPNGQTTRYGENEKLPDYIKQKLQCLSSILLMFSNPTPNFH", "assay": "Selectivity interaction (KinomeScan (DiscoverX)) EUB0001619a PLK4", "settings": "at 1 µM"}}}
{"smiles": "CCC(=O)N1CCN(c2ccc(-n3c(=O)ccc4cnc5ccc(-c6cnc7ccccc7c6)cc5c43)cc2C(F)(F)F)CC1", "values": [{"measurement": "% of control", "setting": "[1]", "value": 100, "unit": "%"}]}
{"smiles": "C=CC(=O)Nc1ccc(C(=O)Nc2[nH]nc3c2CN(C(=O)N[C@H](CN(C)C)c2ccccc2)C3(C)C)cc1", "values": [{"measurement": "% of engagement", "setting": "[2]", "value": -3.3, "unit": "%"}]}
{"smiles": "N#Cc1cccc(-c2c[nH]c3ncnc(N4CCOCC4)c23)c1", "values": [{"measurement": "% of control", "setting": "[3]", "value": 33, "unit": "%"}]}
